Results on 22 molecules are retold here after PMC3996367, “Profiling of drugs and environmental chemicals for functional impairment of neural crest migration in a novel stem cell-based test battery” (Archives of Toxicology, 2014).

“And” between values parts separate entries of the source, which are not always exact repeats. Equal values may be shown once. Read-outs that look alike come from different tables or passages of the source.

In data set [1] the test system is HEK293 cells.
Data set [2] concerns mESC-derived neural stem cells (mESCn).
Data set [3] relates to hESC-derived neural crest cells (NCC).
For data set [4] the following is noted: for Free conc. (FCC; free plasma concentration): calculated from CC and plasma protein binding.
The conditions of data set [5]: cited from earlier work; for Clinical conc. (CC; total/maximal plasma concentration): human plasma, literature data mining, ref per-compound studies in Fig. S4; for Plasma concentration range / Plasma concentration, average: ref Laske et al. (2009).
Data set [6] relates to plasma proteins. Particulars: cited from earlier work.
Data set [7] has as its system migration of hESC-derived neural crest cells (NCC). Briefly: MINC assay (migration inhibition of neural crest cells, UKN2). To be noted: 48 h, in a non-cytotoxic concentration range.
For data set [8] the following is noted: head of Fig. S4 entry; compiled from in vivo/in vitro studies and simulations.
Data set [9] relates to rat fetuses. On the set-up: method as in Machera 1995. To be noted: cleft palate and hydrocephaly as most common malformations; ref Machera 1995; cited from earlier work.
Data set [10] concerns zebrafish embryos. On the set-up: method as in Hermsen et al. (2012). Particulars: pericardial edema, malformations of head and heart; ref Hermsen et al. (2012); cited from earlier work.
In data set [11] the test system is rat whole embryo culture. More on the design: method as in Robinson et al. (2012). Particulars: 48 hours, ref Robinson et al. (2012), cited from earlier work.
For data set [12], the system named is dopaminergic PC12 cells. On the set-up: method as in Heusinkveld et al. (2013). Particulars: ref Heusinkveld et al. (2013); cited from earlier work.
Data set [13] has as its system neural embryonic stem cell test (ESTn). On the set-up: method as in Theunissen et al. (2012). To be noted: ref Theunissen et al. (2012); cited from earlier work.
The test system of data set [14] is whole embryo culture. On the set-up: method as in Piersma et al. (2008). Particulars: ref Piersma et al. (2008); cited from earlier work.
For data set [15], the system named is embryonic stem cell differentiation. More on the design: method as in de Jong et al. 2009. Particulars: ref de Jong et al. 2009; cited from earlier work.
For data set [16] the following is noted: cited from earlier work; for Geometric mean concentration in maternal serum: ref Eskenazi et al. (2013); for Average concentration in breast milk: ref Gascon et al. (2012).
Data set [17] deals with rats. Particulars: single oral dose to dams on gestational day 6, Wistar rat; ref Kuriyama et al. (2005); cited from earlier work.
Data set [18] has as its system fetal growth. On the set-up: method as in Govarts et al. (2012). Particulars: per 1 µg/l increase in cord serum PCB-153; ref Govarts et al. (2012); cited from earlier work.
Data set [19] has as its system rats. Particulars: single dose, oral gavage, adult male Long-Evans rats; ref Crofton et al. (2011); cited from earlier work.
Setting [20] is: 50 patients with Alzheimer's disease.

With `C[C@]12CC[C@H](O)CC1=CC[C@@H]1[C@@H]2CC[C@]2(C)C(c3cccnc3)=CC[C@@H]12` [Abiraterone], the “Highest non-cytotoxic conc. in HEK293” value in data set [1] (human) was found to be 2.0 µM. The “Highest non-cytotoxic conc. in mESCn” value in [2] (mouse) was 0.97 µM. Further, the “Concentration for hit finding in NCC (highest non-cytotoxic concentration in the UKN2 test system)” value in data set [3] (human) is 2000 nM. Further, the “Free conc. (FCC; free plasma concentration)” value in data set [4] was 7.8 nM. For the same molecule, the “Clinical conc. (CC; total/maximal plasma concentration)” value in [5] is 647.3 nM. Moreover, the “Bound to plasma proteins” value in data set [6] (ref Gurav et al. (2012)) is given as greater than 98.8%. For the same molecule, the “Effect on NCC migration in concentration-response study” value (“Effect on NCC migration” below) in data set [7] is “concentration-dependent effect”.

`COCCCOc1cc(C[C@@H](C[C@H](N)[C@@H](O)C[C@H](C(=O)NCC(C)(C)C(N)=O)C(C)C)C(C)C)ccc1OC` [Aliskiren]: the “Free conc. (FCC; free plasma concentration)” value in data set [4] is reported as 166 nM. In [5], the “Clinical conc. (CC; total/maximal plasma concentration)” value is recorded as 326.5 nM. The Protein binding in [6] (moderate, ref Vaidyanathan et al. 2008) is listed as 47-51%.

As for `CN(C)CCCN1c2ccccc2Sc2ccc(Cl)cc21` [Chlorpromazine], in data set [6] (plasma), the “Bound to plasma protein albumin” value is given as “around 85%”.

As to `CC(C1CC1)C(O)(Cn1cncn1)c1ccc(Cl)cc1` (stereo not drawn) [Cyproconazole], in data set [8], the DT concentration was 65 to 118 µM. Besides, the “Suggested NOEL” value in data set [9] was 20 mg/kg. Moreover, in [10], the “Concentration increasing teratogenic effects” value was 65000 nM. Besides, the results for the Malformations in [11] (1 mM) and in data set [11] (1.7 mM) were 50% and 100%, respectively. For the same molecule, the “Inhibitory concentration on depolarization-evoked intracellular calcium concentration” value in data set [12] is 65 µM. Further, the “Concentration reducing cell viability to 80%” value in data set [13] was 117600 nM. In addition, the “Effect on NCC migration” value in [7] was “concentration-dependent effect”.

Regarding `COC1=C2C[C@@H](C)C[C@H](OC)[C@H](O)[C@@H](C)/C=C(\C)[C@H](OC(N)=O)[C@@H](OC)/C=C\C=C(/C)C(=O)NC(=CC1=O)C2=O` [Geldanamycin], in [5], the “Clinical conc. (CC; total/maximal plasma concentration)” value is 800 nM. Further, the “Effect on NCC migration” value in data set [7] is given as “concentration-dependent effect”.

On to `Cc1ccc(NC(=O)c2ccc(CN3CCN(C)CC3)cc2)cc1Nc1nccc(-c2cccnc2)n1` [Imatinib], for which the “Concentration for hit finding in NCC (highest non-cytotoxic concentration in the UKN2 test system)” value in [3] (human) came out at 5000 nM. Further, the “Effect on NCC migration” value in data set [7] was “concentration-dependent effect”.

Take `COCC(=O)O` [Methoxyacetic acid]: the DT concentration in [8] is 7500 µM. The BMC5 in data set [14] was 1.6 mM. The BMC50 in data set [15] is reported as 2.4 mM. Moreover, the “Estimated human blood concentration” value in data set [16] (due to permitted occupational EGME exposure, ref Welsch 2005) was “approximately 60 μM”. In data set [16] (head of Fig. S4 entry, ref studies in Fig. S4), the Human exposure concentration was 60 µM.

`COC(=O)c1ccc2c(c1)NC(=O)/C2=C(\Nc1ccc(N(C)C(=O)CN2CCN(C)CC2)cc1)c1ccccc1` [Nintedanib/ BIBF 1120, Nintedanib]: the “Free conc. (FCC; free plasma concentration)” value in data set [4] is given as 70.8 nM. In data set [5], the “Clinical conc. (CC; total/maximal plasma concentration)” value is on record as 74.2 nM.

`CC[C@H](C)[C@@H]1NC(=O)[C@H](Cc2ccc(O)cc2)NC(=O)[C@@H](N)CSSC[C@@H](C(=O)N2CCC[C@H]2C(=O)N[C@@H](CC(C)C)C(=O)NCC(N)=O)NC(=O)[C@H](CC(N)=O)NC(=O)[C@H](CCC(N)=O)NC1=O` [Oxytocin]: in data set [1] (48 h), the “Highest non-cytotoxic conc. in HEK293” value is greater than 0.1 µM. For the same molecule, the “Highest non-cytotoxic conc. in mESCn” value in data set [2] (48 h) was greater than 100.0 µM. The “Concentration for hit finding in NCC (highest non-cytotoxic concentration in the UKN2 test system)” value in data set [3] (48 h) worked out at 100 nM. Moreover, the “Free conc. (FCC; free plasma concentration)” value in data set [4] is 2.0 nM. Besides, the “Clinical conc. (CC; total/maximal plasma concentration)” value in [5] is 2.0 nM. The “Binding state in plasma” value in data set [6] (ref Fabian et al. (1969)) was “unbound”.

For the molecule `Brc1ccc(Oc2cc(Br)c(Br)cc2Br)c(Br)c1` [PBDE-99, 2,2′,4,4′,5-pentabromodiphenyl ether], in data set [17], the “Dose causing hyperactivity and impaired spermatogenesis in offspring” value is 0.11 µmol/kg. Besides, the “Geometric mean concentration in maternal serum” value in data set [16] (converted) was 25 ng/l and 44 pM; in data set [16], 4.5 ng/g. For the same molecule, the “Average concentration in breast milk” value is 1 ng/l and 1.8 pM in [16] (converted); 0.27 ng/g lw in data set [16]. For the same molecule, the “Effect on NCC migration” value in data set [7] is reported as “concentration-dependent effect”.

As for `Clc1cc(Cl)c(-c2cc(Cl)c(Cl)cc2Cl)cc1Cl` [PCB-153], in data set [8], the DT concentration is 0.000388 µM. In data set [18], the “Reduction of birth weight” value is 150 g. Moreover, the “Median cord serum concentration” value in [16] (cohort of 7990 women, ref Govarts et al. (2012)) was 140 ng/l and 388 pM. In addition, the Maternal serum concentration in data set [16] (ref Covaci et al. (2002)) is 670 ± 350 pg/mL. Also, the “Effect on NCC migration” value in data set [7] is reported as “concentration-dependent effect”.

On to `O=C(NC[C@H]1CN(c2ccc(N3CCOCC3=O)cc2)C(=O)O1)c1ccc(Cl)s1` [Rivaroxaban], for which the “Free conc. (FCC; free plasma concentration)” value in [4] is 41.4 nM. For the same molecule, the “Clinical conc. (CC; total/maximal plasma concentration)” value in [5] is 689.6 nM. In [6] (PBPK model study, ref Grillo et al. (2012)), the “Unbound fraction in plasma” value is 6%.

In the case of `O=C(Nc1c(Cl)cncc1Cl)c1ccc(OC(F)F)c(OCC2CC2)c1` [Roflumilast], the “Free conc. (FCC; free plasma concentration)” value in data set [4] is given as 0.2 nM. Moreover, in data set [5], the “Clinical conc. (CC; total/maximal plasma concentration)” value is 18.0 nM.

For `CCCc1nn(C)c2c(=O)[nH]c(-c3cc(S(=O)(=O)N4CCN(C)CC4)ccc3OCC)nc12` [Sildenafil], the “Free conc. (FCC; free plasma concentration)” value in [4] is on record as 11.0 nM. In data set [6] (ref Purvis et al. (2002)), the Plasma protein binding result was “approximately 95%”.

On to `N[C@@H](CC(=O)N1CCn2c(nnc2C(F)(F)F)C1)Cc1cc(F)c(F)cc1F` [Sitagliptin], for which, in data set [4], the “Free conc. (FCC; free plasma concentration)” value is 1200 nM. Also, the “Clinical conc. (CC; total/maximal plasma concentration)” value in data set [5] was 1900 nM. Further, the “Binding to plasma proteins” value in data set [6] (ref Herman et al. (2006a)) is recorded as 38%.

The Cmax is the peak of the concentration-time curve. Turning to `Nc1ccc(S(=O)(=O)Nc2ncccn2)cc1` [Sulfadiazine], in data set [1] (human), the “Highest non-cytotoxic conc. in HEK293” value was found to be 100.0 µM. In addition, the “Highest non-cytotoxic conc. in mESCn” value in data set [2] (mouse) was greater than 50.0 µM. Moreover, the “Concentration for hit finding in NCC (highest non-cytotoxic concentration in the UKN2 test system)” value in data set [3] (human) turned out to be 50000 nM. Moreover, in data set [5] (human, in vivo), the “Clinical concentration range (average Cmax)” value is on record as 50-110 and the Cmax was 200000 to 440000 nM. Also, the “Degree of protein binding” value in data set [6] (human) is on record as 50%.

`CCC[C@H](NC(=O)[C@@H]1[C@H]2CCC[C@H]2CN1C(=O)[C@@H](NC(=O)[C@@H](NC(=O)c1cnccn1)C1CCCCC1)C(C)(C)C)C(=O)C(=O)NC1CC1` [Telaprevir]: in [4], the “Free conc. (FCC; free plasma concentration)” value is 1600 nM. For the same molecule, the “Clinical conc. (CC; total/maximal plasma concentration)” value in data set [5] was 5100 nM.

`C/C(O)=C(\C#N)C(=O)Nc1ccc(C(F)(F)F)cc1` [Teriflunomide]: the “Free conc. (FCC; free plasma concentration)” value in data set [4] is listed as 54.0 nM. Further, in [5], the “Clinical conc. (CC; total/maximal plasma concentration)” value was 10800 nM. Also, in data set [6] (almost constant, ref not given), the “Portion of free teriflunomide” value was 0.5%. The “Bound to plasma proteins” value in [6] (primarily to albumin, no unit and ref not given) is recorded as greater than 99.3.

Consider `CC(C)(C)C(O)C(Oc1ccc(Cl)cc1)n1cncn1` (stereo not drawn) [triadimenol], for which the “Dose causing transient CNS toxicity (hyperactivity, stereotyped behavior)” value in data set [19] is listed as 50 mg/kg.

Consider Erythropoietin, for which the “Clinical conc. (CC; total/maximal plasma concentration)” value in [5] was 0.3 nM.

Regarding Neuregulin, the “Clinical conc. (CC; total/maximal plasma concentration)” value in [5] is 6300 nM.

B1: granulocyte colony-stimulating factor (protein, UniProt P09919 31-207, looked up)
Granulocyte …: TPLGPASSLPQSFLLKCLEQVRKIQGDGAALQEKLVSECATYKLCHPEELVLLGHSLGIPWAPLSSCPSQALQLAGCLSQLHSGLFLYQGLLQALEGISPELGPTLDTLQLDVADFATTIWQQMEELGMAPALQPTQGAMPAFASAFQRRAGGVLVASHLQSFLEVSYRVLRHLAQP
Consider B1, for which the Clinically relevant concentration in data set [4] (calculated from Laske et al. (2009) data) is 25 pg/mL. Further, the Plasma concentration range in data set [5] (50 healthy controls) is 5 to 80 pg/mL; in [5] (setting [20]), 10 to 40 pg/mL. Also, the “Plasma concentration, average” value in [5] (50 healthy controls) is ~ 28 pg/ml; in data set [5] (setting [20]), ~ 20 pg/ml. For the same molecule, in [5], the “Clinical conc. (CC; total/maximal plasma concentration)” value was 0.0013 nM.
